This is an account of results in patent US20160362416A1, “ANTIVIRAL COMPOUNDS” (Gilead Sciences, Inc., priority 2012, published 2016).

Experiment [1] has as its system stable HCV 1a RLuc replicon cells (genotype 1a H77 replicon). Put plainly: HCV genotype 1a RLuc replicon reporter assay. It counts as cell-based. The note with it: Hepatitis C virus; stable genotype 1a H77 RLuc replicon cells, 72 hours. The procedure: (§1) Evaluation of cell-based anti-HCV activity: Antiviral potency (EC50) was determined using a Renilla luciferase (RLuc)-based HCV replicon reporter assay. To perform the assay for genotype 1 and 2a JFH-1, stable HCV 1a RLuc replicon cells (harboring a dicistronic genotype 1a H77 replicon that encodes a RLuc reporter), stable HCV lb RLuc replicon cells (harboring a dicistronic genotype 1b Conl replicon that encodes a RLuc reporter), or stable HCV 2a JFH-1 Rluc replicon cells (harboring a dicistronic genotype 2a JFH-1 replicon that encodes a RLuc reporter; with L31 present in NS5A) were dispensed into 384-well plates for EC50 assays. To perform the assay for genotype 2a (with M31 present in NS5A) or 2b, NS5A chimeric genotype 2a JFH-1 replicons that encodes a RLuc-Neo reporter and either genotype 2a J6 strain NS5A gene or genotype 2b MD2b-1 strain NS5A gene (both with M31 present) respectively, were either transiently transfected (t) into Huh-Lunet cells or were established as stably replicating replicon cells (s) is provided. Either cells were dispensed into 384-well plates for EC50 assays. To perform the assay for genotype 3 and 4, NS5A chimeric genotype 1b Conl replicons that encodes a Pi-RLuc reporter and either genotype 3a S52 strain NS5A gene or genotype 4a ED43 strain NS5A gene respectively, were transiently transfected (t) into Huh-Lunet cells, which were subsequently dispensed into 384-well plates. Compounds were dissolved in DMSO at a concentration of 10 mM and diluted in DMSO either manually or using an automated pipeting instrument. Serially 3-fold diluted compounds were either manually mixed with cell culture media and added to the seeded cells or directly added to the cells using an automated instrument. DMSO was used as a negative (solvent; no inhibition) control, and the protease inhibitor ITMN-191 was included at a concentration >100×EC50 as a positive control. 72 hours later, cells were lysed and Renilla luciferase activity quantified as recommended by the manufacturer (Promega-Madison, Wis.). Non-linear regression was performed to calculate EC50 values.
For orientation: Replicon systems follow genome replication, usually without infectious particles.

Experiment [2] concerns NS5A chimeric genotype 2a JFH-1 replicon with genotype 2a J6 strain NS5A gene (M31). Put plainly: HCV genotype 2a J6 NS5A chimeric replicon assay, transient (t). Format: cell-based. The note with it: Hepatitis C virus, 72 h, read-out: 2a J6 (t) (nM). The procedure:
as §1

The test system of experiment [3] is stable HCV 2a JFH-1 Rluc replicon cells (L31 present in NS5A). The experiment in a line: HCV genotype 2a JFH-1 RLuc replicon reporter assay. Format: cell-based. As to conditions: Hepatitis C virus, 72 h, read-out: 2a JFH (nM). The procedure:
as §1

Experiment [4] relates to stable HCV 1b RLuc replicon cells (genotype 1b Con1 replicon). Put plainly: HCV genotype 1b RLuc replicon reporter assay. Format: cell-based. As to conditions: Hepatitis C virus; stable genotype 1b Con1 RLuc replicon cells, 72 hours. The procedure: as §1
For experiment [5], the system named is NS5A chimeric genotype 2a JFH-1 replicon with genotype 2b MD2b-1 strain NS5A gene (M31). The experiment in a line: HCV genotype 2b NS5A chimeric replicon assay, stable (s). Format: cell-based. As to conditions: Hepatitis C virus, 72 h, read-out: 2b (s) (nM). The procedure:
as §1

Experiment [6] concerns NS5A chimeric genotype 1b Con1 replicon with genotype 3a S52 strain NS5A gene. Put plainly: HCV genotype 3a NS5A chimeric replicon assay. Format: cell-based. As to conditions: Hepatitis C virus, 72 h, read-out: 3a (nM). The procedure:
as §1

The test system of experiment [7] is Y93N in genotype 1a NS5A replicon. The experiment in a line: Resistance mutant replicon assay, genotype 1a NS5A Y93N. It counts as cell-based, HCV. The note with it: Hepatitis C virus, read-out: 1a Y93N (nM). The procedure:
as §1
(§2) To determine the antiviral potency (EC50) against resistance mutants, resistance mutations, including M28T, Q30R, Q30H, Q30E, L31M, Y93C, Y93H, and Y93N in genotype 1a NS5A, Y93H and L31V/Y93H in genotype 1b NS5A, and Y93H for in genotype 3a NS5A, were introduced individually into either 1a Pi-Rluc or 1b Pi-Rluc replicons by site directed mutagenesis. Replicon RNA of each resistant mutant was transiently transfected into Huh-7-derived cured-51 cells and antiviral potency was determined on these transfected cells as described above.

The test system of experiment [8] is NS5A chimeric genotype 1b Con1 replicon with genotype 4a ED43 strain NS5A gene. The experiment in a line: HCV genotype 4a NS5A chimeric replicon assay. It counts as cell-based. The note with it: Hepatitis C virus, 72 h, read-out: 4a (s) (nM). The procedure:
as §1, with “[…],” for “were transiently transfected (t) into Huh-Lunet cells,”

Experiment [9] has as its system Y93H in genotype 3a NS5A replicon. The experiment in a line: Resistance mutant replicon assay, genotype 3a NS5A Y93H. It counts as cell-based, HCV. The note with it: Hepatitis C virus, read-out: 3a Y93H (nM). The procedure: as §1, §2
For experiment [10], the system named is Y93H in genotype 1a NS5A replicon. Put plainly: Resistance mutant replicon assay, genotype 1a NS5A Y93H. It counts as cell-based, HCV. The note with it: Hepatitis C virus, read-out: 1a Y93H (nM). The procedure: as §1, §2

Structures are written as SMILES.

Consider `COC(=O)N[C@H](C(=O)N1[C@@H](C)CC[C@H]1c1ncc(-c2ccc3c(c2)COc2cc4c(ccc5nc([C@@H]6C[C@@H]7CCC[C@@H]7N6C(=O)[C@@H](NC(=O)OC)C6C[C@@H](C)O[C@H](C)C6)[nH]c54)cc2-3)[nH]1)C(C)C` (stereo partly drawn) [Example AX, methyl {(2S)-1-[(2S,5S)-2-(5-{2-[(2S,3aS,6aS)-1-{(2S)-2-[(2R,6R)-2,6-dimethyltetrahydro-2H-pyran-4-yl]-2-[(methoxycarbonyl)amino]acetyl}octahydrocyclopenta[b]pyrrol-2-yl]-1,11-dihydroisochromeno[4′,3′:6,7]naphtho[1,2-d]imidazol-9-yl}-1H-imidazol-2-yl)-5-methylpyrrolidin-1-yl]-3-methyl-1-oxobutan-2-yl}carbamate], for which the EC50 in [1] came out at 0.017 nM; in [2], 0.046 nM; in experiment [3], 0.012 nM; in experiment [4], 0.022 nM; in [5], 0.027 nM; in [6], 0.015 nM. Also, the EC50 was 0.885 nM in experiment [7], 0.01 nM in [8], 4.97 nM in experiment [9] and 0.48 nM in [10].

For `COC[C@H]1C[C@@H](c2nc3ccc4cc5c(cc4c3[nH]2)OCc2cc(-c3cnc([C@@H]4CC[C@H](C)N4C(=O)[C@@H](NC(=O)OC)C4C[C@@H](C)O[C@H](C)C4)[nH]3)ccc2-5)N(C(=O)[C@@H](NC(=O)OC)C2C[C@@H](C)O[C@H](C)C2)C1` (stereo partly drawn) [Example BD, methyl {(1S)-1-[(2R,6R)-2,6-dimethyltetrahydro-2H-pyran-4-yl]-2-[(2S,5S)-2-(5-{2-[(2S,4S)-1-{(2S)-2-[(2R,6R)-2,6-dimethyltetrahydro-2H-pyran-4-yl]-2-[(methoxycarbonyl)amino]acetyl}-4-methoxymethylpyrrolidin-2-yl]-1,11-dihydroisochromeno[4′,3′:6,7]naphtho[1,2-d]imidazol-9-yl}-1H-imidazol-2-yl)-5-methylpyrrolidin-1-yl]-2-oxoethyl}carbamate], the EC50 in experiment [1] turned out to be 0.06 nM; in experiment [3], 0.017 nM; in experiment [4] it was 0.096 nM; in experiment [5], 0.026 nM; in experiment [6], 0.072 nM; in [7] it was 0.104 nM. In addition, the results for the EC50 in experiment [8], in experiment [9] and in [10] were 0.029 nM, 0.814 nM and 0.088 nM, respectively.

For the compound `CC[C@H](C)[C@H](NC(=O)OC)C(=O)N1[C@@H](C)CC[C@H]1c1ncc(-c2ccc3c(c2)COc2cc4c(cc2-3)CCc2nc([C@@H]3CC[C@H](C)N3C(=O)[C@@H](NC(=O)OC)C3C[C@@H](C)O[C@H](C)C3)[nH]c2-4)[nH]1` (stereo partly drawn) [Example BE, methyl{(2S,3S)-1-[(2S,5S)-2-(5-{2-[(2S,5S)-1-{(2S)-2-[(2R,6R)-2,6-dimethyltetrahydro-2H-pyran-4-yl]-2-[(methoxycarbonyl)amino]acetyl}-5-methylpyrrolidin-2-yl]-1,4,5,11-tetrahydroisochromeno[4′,3′:6,7]naphtho[1,2-d]imidazol-9-yl}-1H-imidazol-2-yl)-5-methylpyrrolidin-1-yl]-3-methyl-1-oxopentan-2-yl}carbamate], the EC50 is 0.017 nM in experiment [1]; 0.011 nM in experiment [3]; 0.019 nM in experiment [4]; 0.029 nM in experiment [5]; 0.022 nM in experiment [6]; 1.42 nM in experiment [7]. Further, the values for the EC50 in [8], in experiment [9] and in [10] were 0.011 nM, 2.25 nM and 0.755 nM, respectively.

Consider `COC(=O)N[C@H](C(=O)N1[C@@H](C)CC[C@H]1c1ncc(-c2ccc3c(c2)COc2cc4c(cc2-3)CCc2nc([C@@H]3CC[C@H](C)N3C(=O)[C@@H](NC(=O)OC)C3C[C@@H](C)O[C@H](C)C3)[nH]c2-4)[nH]1)C1C[C@@H](C)O[C@H](C)C1` (stereo partly drawn) [Example BF, methyl {(1S)-1-[(2R,6R)-2,6-dimethyltetrahydro-2H-pyran-4-yl]-2-[(2S,5S)-2-(9-{2-[(2S,5S)-1-{(2S)-2-[(2R,6R)-2,6-dimethyltetrahydro-2H-pyran-4-yl]-2-[(methoxycarbonyl)amino]acetyl}-5-methylpyrrolidin-2-yl]-1H-imidazol-5-yl}-1,4,5,11-tetrahydroisochromeno[4′,3′:6,7]naphtho[1,2-d]imidazol-2-yl)-5-methylpyrrolidin-1-yl]-2-oxoethyl}carbamate], for which the EC50 in experiment [1] is 0.048 nM; in [2], 0.035 nM; in experiment [3] it was 0.021 nM; in experiment [4], 0.049 nM; in experiment [5], 0.042 nM; in experiment [6], 0.065 nM. For the same compound, the EC50 in experiment [7] worked out at 0.125 nM; in experiment [8] it was 0.025 nM; in experiment [9], 0.365 nM; in [10], 0.035 nM.

Consider `CC[C@H](C)[C@H](NC(=O)OC)C(=O)N1[C@H](c2ncc(-c3ccc4c(c3)COc3cc5c(ccc6nc([C@@H]7CC[C@H](C)N7C(=O)[C@@H](NC(=O)OC)C7C[C@@H](C)O[C@H](C)C7)[nH]c65)cc3-4)[nH]2)C[C@@H]2CCC[C@@H]21` (stereo partly drawn) [Example BG, methyl{(2S,3S)-1-[(2S,3aS,6aS)-2-(5-{2-[(2S,5S)-1-{(2S)-2-[(2R,6R)-2,6-dimethyltetrahydro-2H-pyran-4-yl]-2-[(methoxycarbonyl)amino]acetyl}-5-methylpyrrolidin-2-yl]-1,11-dihydroisochromeno[4′,3′:6,7]naphtho[1,2-d]imidazol-9-yl}-1H-imidazol-2-yl)hexahydrocyclopenta[b]pyrrol-1(2H)-yl]-3-methyl-1-oxopentan-2-yl}carbamate], for which the EC50 in [1] was determined as 0.02 nM; in [2] it was 0.045 nM; in experiment [3], 0.017 nM; in experiment [4] it was 0.018 nM; in experiment [5] it was 0.039 nM; in experiment [6], 0.028 nM. The EC50 stood at 0.883 nM in [7], 0.017 nM in experiment [8], 5.58 nM in [9] and 0.364 nM in [10].
